The OligoGym collection
Several values for one entry are separate records, joined by “and”; a condition that tells them apart may be missing. Equal entries are not always repeated. HELM strings list units from the 5' end as sugar, base in round brackets, then linkage (d deoxyribose, r ribose, m 2'-O-methyl, p phosphodiester). Strings are as the collection lists them, not checked against the first reports. ss, as = sense and antisense strand; [lna] = locked nucleic acid (LNA); [fl2r] = 2'-fluoro

Details: siRNA
Note: test system not given here.

Substance	target mRNA knockdown
RNA1{r(A)p.r(U)p.r(C)p.r(G)p.r(A)p.r(C)p.r(C)p.r(U)p.r(G)p.r(A)p.r(A)p.r(G)p.r(G)p.r(A)p.r(G)p.[fl2r](U)p.r(A)p.r(C)p.r(G)p.r(T)p.r(T)}|RNA2{r(C)p.r(G)p.r(U)p.[fl2r](A)p.r(C)p.r(U)p.r(C)p.r(C)p.r(U)p.r(U)p.r(C)p.r(A)p.r(G)p.r(G)p.r(U)p.r(C)p.r(G)p.r(A)p.r(U)p.r(T)p.r(T)}$$$RNA1{StrandType:ss}|RNA2{StrandType:as}$	82%
RNA1{r(A)p.r(U)p.r(C)p.r(G)p.r(C)p.[fl2r](U)p.r(G)p.r(C)p.[fl2r](U)p.r(C)p.r(C)p.[fl2r](U)p.r(C)p.r(C)p.r(U)p.r(C)p.r(C)p.r(U)p.r(C)p.r(T)p.r(T)}|RNA2{r(G)p.r(A)p.r(G)p.r(G)p.r(A)p.r(G)p.r(G)p.r(A)p.r(G)p.r(G)p.r(A)p.r(G)p.[fl2r](C)p.r(A)p.r(G)p.r(C)p.r(G)p.r(A)p.r(U)p.r(T)p.r(T)}$$$RNA1{StrandType:ss}|RNA2{StrandType:as}$	69%
RNA1{r(A)p.r(U)p.r(C)p.r(G)p.r(C)p.[fl2r](U)p.r(G)p.r(C)p.r(U)p.r(C)p.r(C)p.r(U)p.r(C)p.r(C)p.r(U)p.r(C)p.r(C)p.r(U)p.r(C)p.r(T)p.r(T)}|RNA2{r(G)p.r(A)p.r(G)p.r(G)p.r(A)p.r(G)p.r(G)p.r(A)p.r(G)p.r(G)p.r(A)p.r(G)p.[fl2r](C)p.r(A)p.r(G)p.r(C)p.r(G)p.r(A)p.r(U)p.r(T)p.r(T)}$$$RNA1{StrandType:ss}|RNA2{StrandType:as}$	71%
RNA1{r(A)p.r(U)p.r(C)p.r(G)p.r(U)p.r(C)p.r(G)p.r(U)p.m(C)p.r(A)p.r(G)p.r(G)p.r(G)p.m(U)p.r(A)p.r(A)p.r(G)p.r(G)p.r(U)p.r(T)p.r(T)}|RNA2{r(A)p.r(C)p.r(C)p.r(U)p.m(U)p.r(A)p.r(C)p.r(C)p.r(C)p.m(U)p.r(G)p.r(A)p.r(C)p.r(G)p.r(A)p.r(C)p.r(G)p.r(A)p.r(U)p.r(T)p.r(T)}$$$RNA1{StrandType:ss}|RNA2{StrandType:as}$	47%
RNA1{r(A)p.r(U)p.r(C)p.r(G)p.r(U)p.r(C)p.r(G)p.r(U)p.r(C)p.r(A)p.r(G)p.r(G)p.r(G)p.m(U)p.r(A)p.r(A)p.r(G)p.r(G)p.r(U)p.r(T)p.r(T)}|RNA2{r(A)p.r(C)p.r(C)p.r(U)p.m(U)p.r(A)p.r(C)p.r(C)p.r(C)p.r(U)p.r(G)p.r(A)p.r(C)p.r(G)p.r(A)p.r(C)p.r(G)p.r(A)p.r(U)p.r(T)p.r(T)}$$$RNA1{StrandType:ss}|RNA2{StrandType:as}$	49%
RNA1{r(A)p.r(U)p.r(C)p.r(U)p.r(G)p.r(A)p.r(A)p.r(G)p.r(A)p.r(A)p.r(G)p.r(G)p.r(A)p.r(G)p.r(A)p.r(A)p.r(A)p.r(A)p.r(A)p.[lna](T)p.[lna](T)}|RNA2{[lna](T)p.r(U)p.r(U)p.r(U)p.r(U)p.r(C)p.r(U)p.r(C)p.r(C)p.r(U)p.r(U)p.r(C)p.r(U)p.r(U)p.r(C)p.r(A)p.r(G)p.r(A)p.r(U)p.[lna](T)p.[lna](T)}$$$RNA1{StrandType:ss}|RNA2{StrandType:as}$	52% and 63%
RNA1{r(A)p.r(U)p.r(C)p.r(U)p.r(G)p.r(A)p.r(A)p.r(G)p.r(A)p.r(A)p.r(G)p.r(G)p.r(A)p.r(G)p.r(A)p.r(A)p.r(A)p.r(A)p.r(A)p.[lna](T)p.[lna](T)}|RNA2{r(U)p.r(U)p.r(U)p.r(U)p.r(U)p.r(C)p.r(U)p.r(C)p.r(C)p.r(U)p.r(U)p.r(C)p.r(U)p.r(U)p.r(C)p.r(A)p.r(G)p.r(A)p.r(U)p.[lna](T)p.[lna](T)}$$$RNA1{StrandType:ss}|RNA2{StrandType:as}$	93%
RNA1{r(A)p.r(U)p.r(C)p.r(U)p.r(G)p.r(A)p.r(A)p.r(G)p.r(A)p.r(A)p.r(G)p.r(G)p.r(A)p.r(G)p.r(A)p.r(A)p.r(A)p.r(A)p.r(A)p.d(T)p.d(T)}|RNA2{[lna](T)p.r(U)p.r(U)p.r(U)p.r(U)p.r(C)p.r(U)p.r(C)p.r(C)p.r(U)p.r(U)p.r(C)p.r(U)p.r(U)p.r(C)p.r(A)p.r(G)p.r(A)p.r(U)p.[lna](T)p.[lna](T)}$$$RNA1{StrandType:ss}|RNA2{StrandType:as}$	45%
RNA1{r(A)p.r(U)p.r(C)p.r(U)p.r(G)p.r(A)p.r(A)p.r(G)p.r(A)p.r(A)p.r(G)p.r(G)p.r(A)p.r(G)p.r(A)p.r(A)p.r(A)p.r(A)p.r(A)p.d(T)p.d(T)}|RNA2{r(U)p.r(U)p.r(U)p.r(U)p.r(U)p.r(C)p.r(U)p.r(C)p.r(C)p.r(U)p.r(U)p.r(C)p.r(U)p.r(U)p.r(C)p.r(A)p.r(G)p.r(A)p.r(U)p.[lna](T)p.[lna](T)}$$$RNA1{StrandType:ss}|RNA2{StrandType:as}$	93%
RNA1{r(A)p.r(U)p.r(C)p.r(U)p.r(G)p.r(A)p.r(A)p.r(G)p.r(A)p.r(A)p.r(G)p.r(G)p.r(A)p.r(G)p.r(A)p.r(A)p.r(A)p.r(A)p.r(A)p.d(T)p.d(T)}|RNA2{r(U)p.r(U)p.r(U)p.r(U)p.r(U)p.r(C)p.r(U)p.r(C)p.r(C)p.r(U)p.r(U)p.r(C)p.r(U)p.r(U)p.r(C)p.r(A)p.r(G)p.r(A)p.r(U)p.d(T)p.d(T)}$$$RNA1{StrandType:ss}|RNA2{StrandType:as}$	95%
RNA1{r(A)p.r(U)p.r(C)p.r(U)p.r(G)p.r(A)p.r(A)p.r(G)p.r(A)p.r(A)p.r(G)p.r(G)p.r(A)p.r(G)p.r(A)p.r(A)p.r(A)p.r(A)p.r(A)p.r(T)p.r(T)}|RNA2{[lna](T)p.r(U)p.r(U)p.r(U)p.r(U)p.r(C)p.r(U)p.r(C)p.r(C)p.r(U)p.r(U)p.r(C)p.r(U)p.r(U)p.r(C)p.r(A)p.r(G)p.r(A)p.r(U)p.[lna](T)p.[lna](T)}$$$RNA1{StrandType:ss}|RNA2{StrandType:as}$	22%
RNA1{r(A)p.r(U)p.r(C)p.r(U)p.r(G)p.r(A)p.r(A)p.r(G)p.r(A)p.r(A)p.r(G)p.r(G)p.r(A)p.r(G)p.r(A)p.r(A)p.r(A)p.r(A)p.r(A)p.r(T)p.r(T)}|RNA2{r(U)p.r(U)p.r(U)p.r(U)p.r(U)p.r(C)p.r(U)p.r(C)p.r(C)p.r(U)p.r(U)p.r(C)p.r(U)p.r(U)p.r(C)p.r(A)p.r(G)p.r(A)p.r(U)p.[lna](T)p.[lna](T)}$$$RNA1{StrandType:ss}|RNA2{StrandType:as}$	90%
RNA1{r(A)p.r(U)p.r(G)p.r(G)p.r(G)p.r(A)p.r(G)p.r(A)p.r(A)p.r(G)p.m(U)p.r(A)p.r(G)p.r(U)p.r(C)p.r(C)p.r(C)p.r(C)p.r(C)p.r(T)p.r(T)}|RNA2{r(G)p.r(G)p.r(G)p.r(G)p.r(G)p.r(A)p.r(C)p.m(U)p.r(A)p.r(C)p.r(U)p.r(U)p.r(C)p.r(U)p.r(C)p.r(C)p.r(C)p.r(A)p.r(U)p.r(T)p.r(T)}$$$RNA1{StrandType:ss}|RNA2{StrandType:as}$	84%
RNA1{r(C)p.[fl2r](C)p.r(A)p.r(G)p.r(C)p.r(G)p.r(A)p.r(G)p.r(C)p.r(C)p.[fl2r](C)p.r(A)p.r(A)p.r(A)p.r(A)p.[fl2r](G)p.r(A)p.r(A)p.r(A)p.r(T)p.r(T)}|RNA2{r(U)p.r(U)p.r(U)p.r(C)p.r(U)p.r(U)p.r(U)p.[fl2r](U)p.r(G)p.r(G)p.r(G)p.r(C)p.r(U)p.r(C)p.r(G)p.r(C)p.[fl2r](U)p.r(G)p.r(G)p.r(T)p.r(T)}$$$RNA1{StrandType:ss}|RNA2{StrandType:as}$	82%
RNA1{r(C)p.[fl2r](C)p.r(A)p.r(G)p.r(C)p.r(G)p.r(A)p.r(G)p.r(C)p.r(C)p.[fl2r](C)p.r(A)p.r(A)p.r(A)p.r(A)p.r(G)p.r(A)p.r(A)p.r(A)p.r(T)p.r(T)}|RNA2{r(U)p.r(U)p.r(U)p.r(C)p.r(U)p.r(U)p.r(U)p.r(U)p.r(G)p.r(G)p.r(G)p.r(C)p.r(U)p.r(C)p.r(G)p.r(C)p.r(U)p.r(G)p.r(G)p.r(T)p.r(T)}$$$RNA1{StrandType:ss}|RNA2{StrandType:as}$	85%
RNA1{r(C)p.[fl2r](U)p.r(A)p.[fl2r](A)p.r(G)p.[fl2r](C)p.r(C)p.[fl2r](U)p.r(G)p.[fl2r](U)p.r(U)p.[fl2r](U)p.r(C)p.[fl2r](U)p.r(U)p.[fl2r](C)p.r(C)p.[fl2r](U)p.r(C)p.r(T)p.r(T)}|RNA2{r(G)p.[fl2r](A)p.r(G)p.r(G)p.[fl2r](A)p.[fl2r](A)p.r(G)p.[fl2r](A)p.[fl2r](A)p.[fl2r](A)p.r(C)p.[fl2r](A)p.r(G)p.r(G)p.r(C)p.r(U)p.r(U)p.[fl2r](A)p.r(G)p.r(T)p.r(T)}$$$RNA1{StrandType:ss}|RNA2{StrandType:as}$	75%
RNA1{r(C)p.[fl2r](U)p.r(A)p.r(A)p.r(G)p.r(C)p.r(C)p.r(U)p.r(G)p.r(U)p.r(U)p.r(U)p.r(C)p.r(U)p.r(U)p.r(C)p.r(C)p.r(U)p.r(C)p.r(T)p.r(T)}|RNA2{r(G)p.r(A)p.r(G)p.r(G)p.r(A)p.r(A)p.r(G)p.r(A)p.r(A)p.r(A)p.r(C)p.r(A)p.r(G)p.r(G)p.r(C)p.r(U)p.r(U)p.r(A)p.r(G)p.r(T)p.r(T)}$$$RNA1{StrandType:ss}|RNA2{StrandType:as}$	82%
RNA1{r(C)p.[fl2r](U)p.r(A)p.r(G)p.r(A)p.r(G)p.r(G)p.[fl2r](A)p.r(U)p.r(C)p.r(U)p.[fl2r](U)p.r(G)p.r(A)p.r(A)p.r(G)p.r(A)p.r(C)p.r(C)p.r(T)p.r(T)}|RNA2{r(G)p.r(G)p.r(U)p.r(C)p.r(U)p.r(U)p.r(C)p.r(A)p.r(A)p.r(G)p.r(A)p.r(U)p.r(C)p.r(C)p.r(U)p.r(C)p.[fl2r](U)p.r(A)p.r(G)p.r(T)p.r(T)}$$$RNA1{StrandType:ss}|RNA2{StrandType:as}$	78%
RNA1{r(C)p.[fl2r](U)p.r(A)p.r(G)p.r(A)p.r(G)p.r(G)p.r(A)p.r(U)p.r(C)p.r(U)p.[fl2r](U)p.r(G)p.r(A)p.r(A)p.r(G)p.r(A)p.r(C)p.r(C)p.r(T)p.r(T)}|RNA2{r(G)p.r(G)p.r(U)p.r(C)p.r(U)p.r(U)p.[fl2r](C)p.r(A)p.r(A)p.r(G)p.r(A)p.r(U)p.r(C)p.r(C)p.r(U)p.r(C)p.[fl2r](U)p.r(A)p.r(G)p.r(T)p.r(T)}$$$RNA1{StrandType:ss}|RNA2{StrandType:as}$	67% and 91%
RNA1{r(C)p.[fl2r](U)p.r(A)p.r(G)p.r(A)p.r(G)p.r(G)p.r(A)p.r(U)p.r(C)p.r(U)p.r(U)p.r(G)p.r(A)p.r(A)p.r(G)p.r(A)p.r(C)p.r(C)p.r(T)p.r(T)}|RNA2{r(G)p.r(G)p.r(U)p.r(C)p.r(U)p.r(U)p.r(C)p.r(A)p.r(A)p.r(G)p.r(A)p.r(U)p.r(C)p.r(C)p.r(U)p.r(C)p.r(U)p.r(A)p.r(G)p.r(T)p.r(T)}$$$RNA1{StrandType:ss}|RNA2{StrandType:as}$	81%
